Results published in publication PMC3652196, “Pharmacometrics of 3-Methoxypterostilbene: A Component of Traditional Chinese Medicinal Plants” (Evidence-based Complementary and Alternative Medicine : eCAM, 2013).
Several values for one entry are separate records, joined by “and”; a condition that tells them apart may be missing. Equal values may be shown once. Read-outs that look alike come from different tables or passages of the source.

How the values were obtained:
[1] = Antioxidant capacity (inhibition of oxidation of ABTS to ABTS radical cation by metmyoglobin, Cayman kit); format: biochemical; details: for Antioxidant capacity (Trolox equivalents): n = 4, mean ± SEM
Protocol: The amount of ABTS^∙+ can be monitored spectrophotometrically. The degree of suppression of absorbance caused by the compound of interest is proportional to the concentration of […], which is expressed as Trolox equivalents (μg/mL). […] No additional dilution was employed. To run the assay, 10 μL of sample was combined with 10 μL metmyoglobin and 150 μL chromogen. Then, 40 μL of hydrogen peroxide working solution was added within 1 min to all the samples. The plate was covered and incubated on a shaker for 5 min at room temperature […]), and the absorbance was measured at 750 nm using the Synergy HT multiwell plate reader and Gen5 data analysis software (Biotek Instruments Inc., Winooski, VT, USA). The assay was performed in quadruplet. For more information regarding the assay protocol, please refer to the instructions for the kit (Antioxidant Assay Kit from Cayman Chemical—Cat. no. 709091).

[2] = Pharmacokinetic study in cannulated male Sprague-Dawley rats (serum and urine, HPLC); format: in vivo, rat; details: for CL renal: serum and urine; for AUC: n = 4 (abstract); for bioavailability: read-out: Bioavailability (F%); for AUC(0-inf): n = 4; for Cumulative amount excreted in urine: over 72 h; for CLhepatic: CLtotal − CLrenal
From the text: The HPLC system used was a Shimadzu HPLC (Kyoto, Japan), consisting of two LC-10A pumps, a SIL-10AF autoinjector, a SPD-M10A photodiode array detector, and a SCL-10A system controller. Data collection and integration were achieved using Shimadzu EZ Start Class VP (version 7.4) software. A Phenomenex Luna C18(2) (5 μm, 250 × 4.60 mm) column was used. The mobile phase consisted of acetonitrile and water (62 : 38 v/v) that were filtered and degassed under reduced pressure prior to use. Pinosylvin was used as the internal standard. […] Ultraviolet detection was carried out at 327 nm. […] The bias of the assay was <15% and was within 13% at the LOQ [9].
Male Sprague-Dawley rats (≈200 g) were obtained from Simonsen Laboratories (Gilroy, CA, USA) and allowed food (Purina Rat Chow 5001) and water ad libitum upon arrival to the vivarium. Rats were housed in a temperature- and humidity-controlled facility with a 12 h light/dark cycle. Prior to the first day of the pharmacokinetic experiment, the rats were anesthetized using isoflurane (IsoFlo, Abbott Laboratories, Abbot Park, IL, USA) coupled with an oxygen regulator, and monitored by pedal reflex and respiration rate to maintain a surgical plane of anesthesia. The right jugular veins of the rats were cannulated with sterile silastic cannulas (Dow Corning, Midland, MI, USA). After cannulation, Intramedic PE-50 polyethylene tubing (Becton, Dickinson and Company, Franklin Lakes, NJ, USA) was exposed through the dorsal skin. The cannulas were flushed with nonheparinized 0.9% sterile saline solution. The animals were placed in metabolic cages to recover and fasted overnight.
No pharmacokinetics studies are reported in the literature for 3-methoxypterostilbene. Despite the paucity of 3-methoxypterostilbene pharmacokinetic studies in the literature, studies on other stilbenes have reported intravenous (IV) dosage ranges from 10 to 20 mg/kg and from 50 to 300 mg//kg for oral (PO) dosage. In keeping with the literature, doses of 10 mg/kg IV and 100 mg/kg PO were chosen.
Male Sprague-Dawley rats (n = 8, average weight 200 g) were cannulated as described in the Animals and Surgical Procedures section. The animals were placed in metabolic cages following surgery where they were recovered overnight and fasted for 12 h prior to dosing. On the day of the experiment, the animals were dosed with 3-methoxypterostilbene in PEG 400 either IV (10 mg/kg, n = 4) or PO (100 mg/kg, n = 4). After dosing, a series of whole blood samples (0.5 mL) were collected at 0, 1, and 15 min, and 0.5, 1, 2, 4, 6, 12, 24, 48, and 72 h and 0, 0.25, 0.5, 1, 2, 4, 6, 12, 24, 48, and 72 h for IV and PO dosed rats, respectively. The cannulas were flushed with 0.5 mL 0.9% nonheparinized saline solution after each sample collection. The samples were collected into regular 2.0 mL Eppendorf tubes, centrifuged at 10,000 rpm for 5 min (Beckman Microfuge centrifuge, Beckman Coulter Inc., Fullerton, CA, USA), and the serum was collected. The serum was divided into two 0.1 mL fractions and placed into regular 2.0 mL Eppendorf tubes labeled as free and total serum samples. Samples were stored at −20°C until analyzed. Urine samples were also collected at 0, 2, 6, 12, 24, 48, and 72 h following 3-methoxypterostilbene administration. The volumes of urine produced by the rats were recorded, and two 0.1 mL aliquots were collected into separate prelabeled regular polypropylene microcentrifuge tubes and labeled as free and total urine samples and stored at −20°C until analyzed. At 72 h after dose, the animals were euthanized exsanguinated, and serum was collected.
Serum and urine samples (0.1 mL) were run in duplicate with or without the addition of 20 μL of 500 U/mL β-glucuronidase and incubated in a shaking water bath at 37°C for 2 h to liberate any glucuronide conjugates. The proteins present in the serum samples were precipitated using 1 mL of −20°C acetonitrile. […]

[3] = rat, intravenous 10 mg/kg, mean ± SEM
[4] = rat, oral 100 mg/kg, mean ± SEM
[5] = rat, oral 100 mg/kg, mean ± SEM, 100 mg/kg

With COc1cc(/C=C/c2ccc(O)c(OC)c2)cc(OC)c1 [3-methoxypterostilbene, trans-3,3′-5-trimethoxy-4′-hydro-xystilbene] the “Antioxidant activity (in words)” value ([1]; 1-100 μg/mL) was “modest concentration-dependent antioxidant activity”, the “Antioxidant capacity (Trolox equivalents)” value ([1]; at 1 μg/mL in DMSO) was 98.6 ± 13.7 μg/mL and 0.394 ± 0.0546 mM and the “Antioxidant capacity (Trolox equivalents)” value ([1]; at 100 μg/mL in DMSO) was 174 ± 2.70 μg/mL and 0.695 ± 0.0094 mM. The CL renal ([2]; male, Sprague-Dawley, rat, intravenous 10 mg/kg, mean ± SEM) was 12.7 mL/min/kg, the CL renal ([2]; male, Sprague-Dawley, rat, oral 100 mg/kg, mean ± SEM) was 0.167 mL/min/kg and the AUC ([2]; male, Sprague-Dawley, serum, rat, IV 10 mg/kg, mean ± SEM) was 48.1 ± 23.8 µg·h/mL. It also gave a concentration at 24 h ([2]; male, Sprague-Dawley, serum, rat, IV 10 mg/kg, below detectable concentrations, read-out: Serum concentration after 24 hours) of under 50 ng/mL, an AUC ([2]; male, Sprague-Dawley, serum, rat, PO 100 mg/kg, mean ± SEM) of 229 ± 44.6 µg·h/mL and an MRT ([2]; male, Sprague-Dawley, serum, rat, intravenous 10 mg/kg, mean ± SEM) of 26 ± 15 h. It also gave a clearance ([2]; male, Sprague-Dawley, serum, rat, intravenous 10 mg/kg, mean ± SEM, read-out: CLtotal (converted)) of 797 mL/min/kg, a half-life ([2]; male, Sprague-Dawley, serum, rat, intravenous 10 mg/kg, mean ± SEM, read-out: t 1/2 serum (converted)) of 18.9 ± 10.9 h and a bioavailability ([2]; male, Sprague-Dawley, serum, rat, intravenous 10 mg/kg) of 100%. For the same molecule, the bioavailability ([2]; male, Sprague-Dawley, serum, rat, oral 100 mg/kg vs 10 mg/kg IV, mean ± SEM) was 50.6 ± 10%, the MRT ([2]; male, Sprague-Dawley, serum, rat, oral 100 mg/kg, mean ± SEM) was 105 ± 13.1 h and the half-life ([2]; male, Sprague-Dawley, serum, rat, oral 100 mg/kg, mean ± SEM, read-out: t 1/2 serum (converted)) was 73.3 ± 8.91 h. The half-life ([2]; male, Sprague-Dawley, urine, rat, intravenous 10 mg/kg, mean ± SEM, read-out: t 1/2 urine (converted)) was 9.54 ± 1.51 h, the half-life ([2]; male, Sprague-Dawley, urine, rat, oral 100 mg/kg, mean ± SEM, read-out: t 1/2 urine (converted)) was 20.6 ± 3.01 h and the Tmax ([2]; male, Sprague-Dawley, rat serum, PO 100 mg/kg, average) was 0.5 h. The AUC(0-inf) ([2]; male, Sprague-Dawley, rat serum, intravenous 10 mg/kg, mean ± SEM) was 48.1 ± 23.8 µg·h/mL, the AUC(0-inf) ([2]; male, Sprague-Dawley, rat serum, oral 100 mg/kg, mean ± SEM) was 229 ± 44.6 µg·h/mL and the “Cumulative amount excreted in urine” value ([2]; rat, IV 10 mg/kg (~2 mg per rat)) was ~ 98 μg. The “Cumulative amount excreted in urine” value ([2]; rat, PO 100 mg/kg (20 mg per rat)) was 341 µg, the “f e (fraction excreted in urine unchanged)” value [2, 3] was 1.64 ± 0.950% and the Vdβ ([2]; rat, intravenous 10 mg/kg, mean ± SEM, 10 mg/kg) was 5.11 ± 0.38 L/kg and 5.11 ± 0.380 L/kg. For the same molecule, the CLhepatic [2, 3] was 785 ± 388 mL/min/kg, the CLtotal [2, 4] was 8 ± 1.33 mL/min/kg and the “f e (fraction excreted in urine unchanged)” value [2, 4] was 1.24 ± 0.160%. The Vdβ [2, 5] was 52.0 ± 10.0 L/kg and 52.0 ± 10.5 L/kg and the CLhepatic [2, 5] was 8 ± 151.33 mL/min/kg and 8 ± 1.33 mL/min/kg.
